{"source": "patent US20120029031A1", "about": "“METADOXINE FOR USE AS INHIBITOR OF HEPATIC FIBROSIS” (LABORATORI BALDACCI SPA, priority 2009, published 2012)", "test_system": "immortalized human fibroblasts", "assay": "Proliferation of immortalized human fibroblasts (MTT, Mosmann method)", "assay_type": "cell-based", "conditions": "MTT O.D. as percent of control; tested range 10^−11M to 10^−3M; measured up to 120 h, treatments repeated every 24 h", "procedure": "The methods used allow evaluating the effect of substances provided with potential antifibrotic activity on the proliferation of fibroblasts.\nA line of immortalized human fibroblasts was used, maintained in a culture in a suitable medium.\nIn order to carry out the proliferation experiments, the fibroblasts were detached from the flask by means of trypsinization, counted and distributed on 96-well flat-bottom plates at the concentration of 2000 cells/100 μl medium.\nScalar concentrations of metadoxine were added (range of concentration from 10^−11M to 10^−3M).\nThe plates were maintained in CO2 incubator at 37° C. The proliferation of the cells was measured at 24 h intervals up to 120 h by using the Mosmann method (10), based on the spectrophotometer determination of the conversion of MTT [3-(4,5 dimethylthiazole-2-yl)-2-5 diphenyltetrazolium bromide] to its blue reduction product, formazan, by mitochondrial enzymes of the metabolically active cells.\nThe optical densities (O.D.) were determined by means of the Titertek Multiscan (Flow) spectrophotometer with 540 nm filter.\nThe O.D.s of the samples are expressed as percentages of the samples with respect to the control group.", "data": [{"smiles": "Cc1ncc(CO)c(CO)c1O.O=C1CC[C@@H](C(=O)O)N1", "note": "[Metadoxine, Pyridoxol L-2-pyrrolidone-5-carboxylate]", "values": [{"measurement": "concentration at which metadoxine inhibits the fibrogenic activity / growth of fibroblasts", "value": "10^−5 M"}]}]}
